One substance from patent US20050202078A1, “Vesicle-encapsulated corticosteroids for the treatment of cancer” (priority 2002, published 2005) can be followed below.

For assay [1], the system named is C26 murine colon carcinoma. The assay can be described thus: Tumor growth inhibition, effect of tumor size (time of injection), C26 model. It counts as in vivo, Balb/c mice. The method, then: (§1) FIG. 3: Effect of tumor size on anti-tumor effects of free or liposomal PLP in B16- or C26-bearing mice. Mice received either single or multiple injections with 20 mg/kg PLP of the indicated formulations. Arrows indicate treatment. Mean±S.D. is reported. N=5 mice/experimental group; and
(§2) B16 murine melanoma and C26 murine colon carcinoma cells were cultured at 37° C. in a 5% CO2-containing humidified atmosphere in DMEM medium (Gibco, Breda, The Netherlands) containing 10% (v/v) fetal calf serum supplemented with 2 mM L-glutamine, 100 IU/ml penicillin, 100 μg/ml streptomycin and 0.25 μg/ml amphotericin B (Gibco).
(§3) As a reference, B16F10 tumors became palpable around seven days and C26 tumors around eleven days after tumor cell inoculation. Tumor size was measured regularly and tumor volume was calculated as described above.
(§4) To determine the effect of time of injection of free or liposomal PLP on tumor growth inhibition, the formulations were injected at a dose of 20 mg/kg at day 1, 7 and 14 or single injection at day 7 or day 14. See, in this light, FIG. 3 showing the results.

The test system of assay [2] is C26 murine colon carcinoma. Put plainly: Tumor growth inhibition, effect of dose, C26 model. It counts as in vivo, Balb/c mice. To be noted: 20 mg/kg or 50 mg/kg, single injection; one week later. As for the experimental part:
(§5) FIG. 2: Effect of dose of free or liposomal PLP on tumor growth in B16- or C26-bearing mice. Mice received a single injection with the indicated dose and formulation of PLP on the day tumors became palpable. Tumor volume one week later is reported. Mean±S.D. N=5 mice/experimental group;
as §2
(§6) Tissue distribution of ^111In-labeled PEG liposomes in tumor-bearing mice. 1×10^5 B 16 or C26 cells were inoculated subcutaneously in the flank of C57B1/6 of Balb/c mice, respectively. […] At 6 hours and 24 hours after injection, animals were sacrificed, a blood sample was taken, and tumor, lung, liver, spleen and kidneys were dissected, weighed and radioactivity was counted. […]
(§7) Mice received a single intravenous injection of an indicated dose of free PLP or liposomal PLP at the time when the tumor became palpable. At seven days after treatment, tumor size was measured and tumor volume calculated according to the equation V=0.52×a^2×b, wherein a is the smallest and b is the largest superficial diameter.

The test system of assay [3] is B16 murine melanoma. Put plainly: Tumor growth inhibition, effect of tumor size (time of injection), B16 model. Type of assay: in vivo, C57B1/6 mice. As for the experimental part: as §1, §2, §3, §4
Assay [4] has as its system B16 murine melanoma. Put plainly: Tumor growth inhibition, effect of dose, B16 model. To be noted: 20 mg/kg or 50 mg/kg, single injection; one week later. It counts as in vivo, C57B1/6 mice. The method, then: as §5, §2, §6, §7
[5] abbreviates: single injection 20 mg/kg at day 7.

On to “prednisolone disodium phosphate [free PLP]”, for which the “tumor growth inhibition between day 1 and day 7” value in assay [1] (20 mg/kg i.v. at day 1) and in assay [3] (20 mg/kg i.v. at day 1) was “Neither liposomal PLP nor free PLP inhibited tumor growth” throughout. For the same substance, the “tumor growth inhibition, multiple injections” value in assay [1] (20 mg/kg i.v. at day 1, 7 and 14) was “did not inhibit tumor growth”. Further, the “significance of tumor volume compared to controls” value in assay [1] (setting [5]) is reported as “not significantly smaller with either treatment”. The “tumor volume compared to buffer-treated control animals” value in assay [2] and in assay [4] was “did not result in significantly different tumor volumes” each time. For the same substance, the “tumor growth inhibition as compared to controls, between day 7 and day 14” value in assay [3] (20 mg/kg i.v. at day 1 and second injection at day 7, p<0.05) is listed as “did not reduce tumor volume”. The “significantly smaller tumor volume after single injection” value in assay [3] (setting [5]) was “only seen after treatment with liposomal PLP”.
